“Also recorded” adds a separate entry of the source.
Key:
A2780 cells = test: Tumor burden in mice bearing platinum-sensitive cells treated with carboplatin; format: in vivo, Athymic nude mice; conditions: 25 mg/kg carboplatin weekly IP
Procedure: (§1) FIG. 3. Carboplatin indirectly regulates mesothelial VCAM-1 expression by affecting tumor burden. Athymic nude mice were given an intraperitoneal (IP) injection of A2780 (n=3 per time point) or A2780Cis (n=3 per time point) cells or saline (control, n=2). One week following tumor initiation a group of mice was imaged to obtain baseline values; the remaining mice were treated with 25 mg/kg carboplatin weekly. (A) SPECT/CT images were collected weekly starting 1 week after tumor initiation (week 0); weeks 0, 1 and 2 indicate that time after carboplatin treatment. […] Heart and omentum were removed from each cohort of mice weekly post-carboplatin treatment (x-axis, 0=1 week tumor, no treatment) and the percent injected dose of radioactivity per gram of tissue determined as described above (see FIG. 2). n=3 for each cohort, C=control animals. […]
(§2) To assess VCAM-1 as a marker of chemosensitivity, two cohorts of mice were injected with an isogenic paired cell line with one being resistant and the other sensitive to platinum: The first cohort (n=9) was injected with A2780, platinum sensitive cell line and the second (n=9) with A2780Cis platinum resistant cell line. […] After each timepoint, n=3 animals from each cohort were sacrificed and VCAM-In^111 uptake quantified via biodistribution as described above.

[1] = cited from earlier work
[2] = tested on: VCAM-1 expression in mesothelial cells (LP9); test: Western analysis of VCAM-1 expression in mesothelial cells (LP9) treated with carboplatin; format: cell-based; conditions: LP9 human mesothelial cells; up to 1 μg/ml carboplatin for 24 hours
A2780Cis cells = test: Tumor burden in A2780Cis-tumored mice treated with carboplatin; format: in vivo, Athymic nude mice; conditions: mice with platinum-resistant A2780Cis tumors, 25 mg/kg carboplatin weekly IP
Procedure: as §1, §2

N.N.O=C([O-])C1(C(=O)[O-])CCC1.[Pt+2] [carboplatin, cis-Diamine(1,1-cyclobutanedicarboxylato)platinum(II)]
Tumor burden following carboplatin treatment (A2780 cells): decreases
Solubility in water [1]: 25 mM
Change in VCAM-1 expression (Western) [2]: no change
Tumor growth / tumor burden under carboplatin (A2780Cis cells): neither was altered; also recorded: continued to grow

— patent publication US9606123B2, “Compositions and methods for diagnosing and monitoring ovarian cancer progression and treatment” (University of Virginia Patent Foundation, priority 2013, dated 2017)
